Experimental data reported in patent US6706663B2, “Herbicidal 3-heterocyclic substituted benzisothiazole and benzisoxazole compounds” (Wyeth, priority 2000, dated 2004).

Tests used:
[1] = tested on: ECHORC (Echinochloa oryzoides); assay: Flooded paddy, preemergence weed control; assay type: in vivo, Echinochloa oryzoides (Ard.) Fritsch.; settings: rated 3-4 weeks after treatment, 0-9 rating scale
Method in brief: (§1)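 Visual 0-9 rating versus control, scoring stand, vigor, malformation, size, chlorosis and overall appearance. Silt loam soil, propagules in top 0.5 cm; flood depth 1.5–3 cm held for the whole test; greenhouse.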

[2] = tested on: SETVI (Setaria viridis); assay: Postemergence herbicidal evaluation; assay type: in vivo, (L.) Beau
Method in brief: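 Ratings use a 0-9 visual scale covering stand, vigor, malformation, size, chlorosis and appearance versus a control, scored 4-5 weeks post-spray. Roughly two-week-old seedlings received about 0.0040-1.000 kg/ha active, applied in 50/50 acetone/water with 0.5% TWEEN 20. Multiple tests per compound were averaged.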

[3] = tested on: ORYSAT (Rice, Tebonnet); assay: Flooded paddy, post-transplant rice tolerance; assay type: in vivo, Oryza sativa, (L.) Tebonnet; settings: flooded paddy, post-transplant rice, rated 3-4 weeks after treatment, 0-9 rating scale
Method in brief: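 Visual 0–9 injury rating against a control, covering stand, vigor, malformation, size, chlorosis and overall appearance. Treatment was post-transplant onto flooded containers (water 1.5–3 cm deep, silt loam) holding two ten-day-old cv. Tebonnet seedlings, maintained on greenhouse benches.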

[4] = tested on: GLXMAW (Soybean, Williams); assay: Postemergence herbicidal evaluation; assay type: in vivo, Glycine max, (L.) Merr. cv Williams
Method in brief: (§2)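 Seedlings grown for about two weeks were sprayed postemergence and then kept under standard greenhouse care. Injury was rated visually 4–5 weeks after treatment on a 0–9 scale against untreated controls, and ratings from repeat tests were averaged.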

[5] = tested on: GALAP (Galium aparine); assay: Postemergence herbicidal evaluation; assay type: in vivo
Method in brief: as §2

[6] = tested on: SAGPY (Sagittaria pygmaea); assay: Flooded paddy, preemergence weed control; assay type: in vivo, L.; settings: rated 3-4 weeks after treatment, 0-9 rating scale
Method in brief: as §1

[7] = tested on: MOOVA (Monochoria vaginalis); assay: Flooded paddy, preemergence weed control; assay type: in vivo, Presl.; settings: rated 3-4 weeks after treatment, 0-9 rating scale
Method in brief: as §1

[8] = tested on: ORYSAT (Rice, Tebonnet); assay: Postemergence herbicidal evaluation; assay type: in vivo, Oryza sativa, (L.) Tebonnet
Method in brief: as §2

[9] = tested on: ZEAMX (Corn, Field); assay: Postemergence herbicidal evaluation; assay type: in vivo, Zea mays, L.
Method in brief: as §2

[10] = tested on: ECHCG (Echinochloa crus-galli); assay: Postemergence herbicidal evaluation; assay type: in vivo, (L.) Beau
Method in brief: as §2

[11] = tested on: CYPIR (Cyperus iria); assay: Flooded paddy, preemergence weed control; assay type: in vivo; settings: rated 3-4 weeks after treatment, 0-9 rating scale
Method in brief: as §1

[12] = tested on: CHEAL (Chenopodium album); assay: Preemergence herbicidal evaluation; assay type: in vivo, L.; settings: preemergence, rated 4-5 weeks after treatment
Method in brief: (§3)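 Test compound is applied in aqueous acetone to cups just after seeding. Cups are watered and maintained on greenhouse benches. Each cup is scored 0–9 by eye relative to a control after four to five weeks.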

[13] = tested on: AMBEL (Ambrosia artemisifolia); assay: Preemergence herbicidal evaluation; assay type: in vivo, L.; settings: preemergence, rated 4-5 weeks after treatment
Method in brief: as §3

[14] = tested on: CASOB (Cassia obtusifolia); assay: Preemergence herbicidal evaluation; assay type: in vivo, L.; settings: preemergence, rated 4-5 weeks after treatment
Method in brief: as §3

[15] = tested on: ORYSAT (Rice, Tebonnet); assay: Preemergence herbicidal evaluation; assay type: in vivo, Oryza sativa, (L.) Tebonnet; settings: preemergence, rated 4-5 weeks after treatment
[16] = tested on: ABUTH (Abutilon theophrasti); assay: Postemergence herbicidal evaluation; assay type: in vivo, Medic.
Method in brief: as §2

[17] = tested on: IPOHE (Ipomoea hederacea); assay: Postemergence herbicidal evaluation; assay type: in vivo, (L.) Jacq.
Method in brief: as §2

[18] = tested on: IPOHE (Ipomoea hederacea); assay: Preemergence herbicidal evaluation; assay type: in vivo, (L.) Jacq.; settings: preemergence, rated 4-5 weeks after treatment
[19] = tested on: SETVI (Setaria viridis); assay: Preemergence herbicidal evaluation; assay type: in vivo, (L.) Beau; settings: preemergence, rated 4-5 weeks after treatment
Method in brief: as §3

[20] = tested on: ECHCG (Echinochloa crus-galli); assay: Preemergence herbicidal evaluation; assay type: in vivo, (L.) Beau; settings: preemergence, rated 4-5 weeks after treatment
Method in brief: as §3

For Cn1c(C(F)(F)F)cc(=O)n(-c2ccc3snc(C4SCCN4C(=O)c4ccccc4)c3c2)c1=O (stereo not shown) [Compound 30, 3-benzoyl-2-[5-[3,6-dihydro-3-methyl-2,6-dioxo-4-(trifluoromethyl)-1(2H)-pyrimidinyl]-1,2-benzisothiazol-3-yl]thiazolidine], the “herbicidal rating, ECHORC” value ([1]; rate 0.0080 kg/ha) was 3.0, the “herbicidal rating, ECHORC” value ([1]; rate 0.0320 kg/ha) was 4.0 and the “herbicidal rating, ECHORC” value ([1]; rate 0.1250 kg/ha) was 9.0. The “Postemergence herbicidal rating, SETVI” value ([2]; rate 0.0320 kg/ha) was 0.0, the “Postemergence herbicidal rating, SETVI” value ([2]; rate 0.0620 kg/ha) was 4.0 and the “herbicidal rating, ORYSAT (rice tolerance)” value ([3]; rate 0.0080 kg/ha) was 0.0. For the same molecule, the “herbicidal rating, ORYSAT (rice tolerance)” value ([3]; rate 0.0320 kg/ha) was 3.0, the “herbicidal rating, ORYSAT (rice tolerance)” value ([3]; rate 0.1250 kg/ha) was 5.0 and the “Postemergence herbicidal rating, GLXMAW” value ([4]; rate 0.0320 kg/ha) was 6.0. For the same molecule, the “Postemergence herbicidal rating, GLXMAW” value ([4]; rate 0.0620 kg/ha) was 6.5, the “Postemergence herbicidal rating, GALAP” value ([5]; rate 0.0320 kg/ha) was 1.0 and the “Postemergence herbicidal rating, GALAP” value ([5]; rate 0.0620 kg/ha) was 3.0. The “herbicidal rating, SAGPY” value ([6]; rate 0.0080 kg/ha) was 0.0, the “herbicidal rating, SAGPY” value ([6]; rate 0.0320 kg/ha) was 1.0 and the “herbicidal rating, SAGPY” value ([6]; rate 0.1250 kg/ha) was 6.0. The “herbicidal rating, MOOVA” value ([7]; rate 0.0080 kg/ha) was 0.0, the “herbicidal rating, MOOVA” value ([7]; rate 0.0320 kg/ha) was 8.5 and the “herbicidal rating, MOOVA” value ([7]; rate 0.1250 kg/ha) was 9.0. For the same molecule, the “Postemergence herbicidal rating, ORYSAT” value ([8]; rate 0.0320 kg/ha) was 2.0, the “Postemergence herbicidal rating, ORYSAT” value ([8]; rate 0.0620 kg/ha) was 3.0 and the “Postemergence herbicidal rating, ZEAMX” value ([9]; rate 0.0320 kg/ha) was 4.5. For the same molecule, the “Postemergence herbicidal rating, ZEAMX” value ([9]; rate 0.0620 kg/ha) was 6.0, the “Postemergence herbicidal rating, ECHCG” value ([10]; rate 0.0320 kg/ha) was 0.0 and the “Postemergence herbicidal rating, ECHCG” value ([10]; rate 0.0620 kg/ha) was 2.0. The “herbicidal rating, CYPIR” value ([11]; rate 0.0080 kg/ha) was 0.0, the “herbicidal rating, CYPIR” value ([11]; rate 0.0320 kg/ha) was 7.0 and the “herbicidal rating, CYPIR” value ([11]; rate 0.1250 kg/ha) was 9.0. For the same molecule, the “CHEAL preemergence herbicidal rating” value ([12]; Rate 0.0620 kg/ha) was 9.0, the “CHEAL preemergence herbicidal rating” value ([12]; Rate 0.1250 kg/ha) was 9.0 and the “CHEAL preemergence herbicidal rating” value ([12]; Rate 0.2500 kg/ha) was 9.0. The “AMBEL preemergence herbicidal rating” value ([13]; Rate 0.0620 kg/ha) was 4.5, the “AMBEL preemergence herbicidal rating” value ([13]; Rate 0.1250 kg/ha) was 7.5 and the “AMBEL preemergence herbicidal rating” value ([13]; Rate 0.2500 kg/ha) was 9.0. For the same molecule, the “CASOB preemergence herbicidal rating” value ([14]; Rate 0.0620 kg/ha) was 0.0, the “CASOB preemergence herbicidal rating” value ([14]; Rate 0.1250 kg/ha) was 1.5 and the “CASOB preemergence herbicidal rating” value ([14]; Rate 0.2500 kg/ha) was 3.0. For the same molecule, the “ORYSAT preemergence herbicidal rating” value ([15]; Rate 0.0620 kg/ha) was 0.0, the “ORYSAT preemergence herbicidal rating” value ([15]; Rate 0.1250 kg/ha) was 0.0 and the “ORYSAT preemergence herbicidal rating” value ([15]; Rate 0.2500 kg/ha) was 1.0. For the same molecule, the “Postemergence herbicidal rating, ABUTH” value ([16]; rate 0.0320 kg/ha) was 9.0, the “Postemergence herbicidal rating, ABUTH” value ([16]; rate 0.0620 kg/ha) was 9.0 and the “Postemergence herbicidal rating, IPOHE” value ([17]; rate 0.0320 kg/ha) was 7.0. The “Postemergence herbicidal rating, IPOHE” value ([17]; rate 0.0620 kg/ha) was 9.0, the “IPOHE preemergence herbicidal rating” value ([18]; Rate 0.0620 kg/ha) was 1.5 and the “IPOHE preemergence herbicidal rating” value ([18]; Rate 0.1250 kg/ha) was 1.5. The “IPOHE preemergence herbicidal rating” value ([18]; Rate 0.2500 kg/ha) was 6.5, the “SETVI preemergence herbicidal rating” value ([19]; Rate 0.0620 kg/ha) was 1.0 and the “SETVI preemergence herbicidal rating” value ([19]; Rate 0.1250 kg/ha) was 8.0. The “SETVI preemergence herbicidal rating” value ([19]; Rate 0.2500 kg/ha) was 9.0, the “ECHCG preemergence herbicidal rating” value ([20]; Rate 0.0620 kg/ha) was 0.0 and the “ECHCG preemergence herbicidal rating” value ([20]; Rate 0.1250 kg/ha) was 4.0. For the same molecule, the “ECHCG preemergence herbicidal rating” value ([20]; Rate 0.2500 kg/ha) was 5.0.
